Converted amounts (≈) assume the structure as drawn. Read-outs that look alike come from different tables or passages of the source. Where a SMILES comes first, the peptide text is derived from it.
Columns and labels:
MRSA T144 = assay: microbe, parasite or virus in culture; format: cell-based, Staphylococcus aureus; conditions: for MIC: micro-broth dilution, CLSI 2018, ~1.5 × 10^6 CFUs per mL, 37 °C, 16–18 h; for IC50: OD600 of micro-broth dilution plates, four-parameter fit
Description: (§1) The MICs of all drugs were determined by micro-broth dilution method according to CLSI 2018 guidelines. The bacterial suspension used in the experiment was appropriate 1.5 × 10^6 colony-forming units (CFUs) per mL and mixed with the drug solution in a sterilized 96-well microtiter plate (Corning, New York, USA), then incubated at 37 °C for 16–18 h. MIC value was defined as the minimum drug concentration without visible bacteria. Meanwhile, the density of the bacteria at 600 nm was measured, and the corresponding IC50 was calculated using log (inhibitor) vs. response variable slope (four parameters) in Graphpad Prism version 8.3.0 software (San Diego, CA, USA). To assess the role of ROS production in the antibacterial activity of WW307, increasing concentrations of N-acetylcysteine (NAC) from 0 to 5 mM were added in culture medium, followed by MICs test.

S. aureus G16 (RIF^R) = assay: microbe, parasite or virus in culture; format: cell-based, Staphylococcus aureus; conditions: for IC50: OD600 of micro-broth dilution plates, four-parameter fit
Description: as §1

[1] = tested on: P. cibarius HNCF44W (blaNDM-1 + tet(X6)); assay: MIC / IC50, micro-broth dilution; format: cell-based; conditions: for MIC: micro-broth dilution, CLSI 2018, ~1.5 × 10^6 CFUs per mL, 37 °C, 16–18 h; for IC50: OD600 of micro-broth dilution plates, four-parameter fit
Description: as §1

E. coli 1F28 (tet(X4)) = assay: microbe, parasite or virus in culture; format: cell-based, Escherichia coli; conditions: for MIC: micro-broth dilution, CLSI 2018, ~1.5 × 10^6 CFUs per mL, 37 °C, 16–18 h; for IC50: OD600 of micro-broth dilution plates, four-parameter fit
Description: as §1

E. coli G92 (mcr-1) = assay: microbe, parasite or virus in culture; format: cell-based, Escherichia coli; conditions: for IC50: OD600 of micro-broth dilution plates, four-parameter fit
Description: as §1

[2] = tested on: A. baumannii C222 (tet(X6)); assay: microbe, parasite or virus in culture; format: cell-based, Acinetobacter baumannii; conditions: for IC50: OD600 of micro-broth dilution plates, four-parameter fit
Description: as §1

E. coli CP131 (mcr-3) = assay: MIC / IC50, micro-broth dilution; format: cell-based, Escherichia coli; conditions: for IC50: OD600 of micro-broth dilution plates, four-parameter fit
Description: as §1

E. coli G6 (blaNDM-5) = assay: MIC / IC50, micro-broth dilution; format: cell-based, Escherichia coli; conditions: for MIC: micro-broth dilution, CLSI 2018, ~1.5 × 10^6 CFUs per mL, 37 °C, 16–18 h; for IC50: OD600 of micro-broth dilution plates, four-parameter fit
Description: as §1

E. coli C3 (blaNDM-1) = assay: MIC / IC50, micro-broth dilution; format: cell-based, Escherichia coli; conditions: for MIC: micro-broth dilution, CLSI 2018, ~1.5 × 10^6 CFUs per mL, 37 °C, 16–18 h; for IC50: OD600 of micro-broth dilution plates, four-parameter fit
Description: as §1

[3] = tested on: E. coli B2 (mcr-1 + blaNDM-5); assay: microbe, parasite or virus in culture; format: cell-based, Escherichia coli; conditions: for IC50: OD600 of micro-broth dilution plates, four-parameter fit
Description: as §1

Sheep RBCs = assay: Hemolysis analysis; format: cell-based; conditions: 8% sheep red blood cell suspension, 37 °C, 1 h, released hemoglobin at 576 nm; PBS negative, ddH2O positive control
Description: The hemolytic activity on all peptides was evaluated based on previous report. Briefly, fresh Sheep RBCs were washed twice with phosphate buffer (PBS), and then 8% red blood cell suspension was prepared. The increasing concentrations of AMPs and melittin were mixed with 8% red blood cell suspension, respectively, and incubated at 37 °C for 1 h. The sterilized PBS and double-distilled water (ddH2O) were used as blank and positive control, respectively. Afterwards, the supernatant was centrifuged to measure the absorption of released hemoglobin at 576 nm by an Infinite M200 Microplate reader (Tecan, Männedorf, Switzerland). The corresponding hemolysis rate was calculated.

[4] = Staphylococcus aureus, read-out: MIC
[5] = Escherichia coli, read-out: MIC
[6] = S. aureus G16 (RIF^R), micro-broth dilution, CLSI 2018, ~1.5 × 10^6 CFUs per mL, 37 °C, 16–18 h
[7] = E. coli G92 (mcr-1), micro-broth dilution, CLSI 2018, ~1.5 × 10^6 CFUs per mL, 37 °C, 16–18 h
[8] = E. coli B2 (mcr-1 + blaNDM-5), micro-broth dilution, CLSI 2018, ~1.5 × 10^6 CFUs per mL, 37 °C, 16–18 h
[9] = A. baumannii C222 (tet(X6)), micro-broth dilution, CLSI 2018, ~1.5 × 10^6 CFUs per mL, 37 °C, 16–18 h
[10] = E. coli CP131 (mcr-3), micro-broth dilution, CLSI 2018, ~1.5 × 10^6 CFUs per mL, 37 °C, 16–18 h

Compound | MIC (MRSA T144; [4]) [mg/L] | MIC (S. aureus G16 (RIF^R); Staphylococcus aureus) [mg/L] | MIC ([1]; read-out: MIC) [mg/L] | MIC (E. coli 1F28 (tet(X4)); [5]) [mg/L] | MIC (E. coli G92 (mcr-1); Escherichia coli) [mg/L] | MIC ([2]; Acinetobacter baumannii) [mg/L] | MIC (E. coli G6 (blaNDM-5); [5]) [mg/L] | MIC (E. coli C3 (blaNDM-1); [5]) [mg/L] | MIC (MRSA T144) [mg/L] | MIC (S. aureus G16 (RIF^R); [6]) [mg/L] | MIC [1] [mg/L] | MIC (E. coli 1F28 (tet(X4))) [mg/L] | MIC (E. coli G92 (mcr-1); [7]) [mg/L] | MIC [3, 8] [mg/L] | MIC [2, 9] [mg/L] | MIC (E. coli CP131 (mcr-3); [10]) [mg/L] | MIC (E. coli G6 (blaNDM-5)) [mg/L] | MIC (E. coli C3 (blaNDM-1)) [mg/L] | IC50 (MRSA T144) [mg/L] | IC50 (S. aureus G16 (RIF^R); S. aureus G16 (RIF^R)) [mg/L] | also measured
CN(C)c1cc(NC(=O)CNC(C)(C)C)c(O)c2c1C[C@H]1C[C@H]3[C@H](N(C)C)C(O)=C(C(N)=O)C(=O)[C@@]3(O)C(O)=C1C2=O [TIG, tigecycline] | 0.25 (≈ 0.427 µM) | < 0.0625 | 64 (≈ 109 µM) | 16 (≈ 27.3 µM) | 4 (≈ 6.83 µM) | 64 (≈ 109 µM) | 2 (≈ 3.41 µM) | 2 (≈ 3.41 µM) |  |  |  |  |  |  |  |  |  |  |  |  | MIC (E. coli CP131 (mcr-3); Escherichia coli, E. coli CP131 (mcr-3), micro-broth dilution, CLSI 2018, ~1.5 × 10^6 CFUs per mL, 37 °C, 16–18 h, read-out: MIC): 2 mg/L (≈ 3.41 µM)
colistin |  |  |  |  |  |  |  |  | 16 | 1 | >256 | 0.125 | 4 | 8 | <0.125 | 4 | 0.5 | <0.125 |  |  | 
CC[C@H](C)[C@H](NC(=O)CN)C(=O)NCC(=O)N[C@@H](C)C(=O)N[C@H](C(=O)N[C@@H](CC(C)C)C(=O)N[C@@H](CCCCN)C(=O)N[C@H](C(=O)N[C@@H](CC(C)C)C(=O)N[C@H](C(=O)N[C@H](C(=O)NCC(=O)N[C@@H](CC(C)C)C(=O)N1CCC[C@H]1C(=O)N[C@@H](C)C(=O)N[C@@H](CC(C)C)C(=O)N[C@H](C(=O)N[C@@H](CO)C(=O)N[C@@H](Cc1c[nH]c2ccccc12)C(=O)N[C@H](C(=O)N[C@@H](CCCCN)C(=O)N[C@@H](CCCNC(=N)N)C(=O)N[C@@H](CCCCN)C(=O)N[C@@H](CCCNC(=N)N)C(=O)N[C@@H](CCC(N)=O)C(=O)N[C@@H](CCC(N)=O)C(N)=O)[C@@H](C)CC)[C@@H](C)CC)[C@@H](C)O)[C@@H](C)O)C(C)C)C(C)C [Melittin, melittin] |  |  |  |  |  |  |  |  | 4 (≈ 1.41 µM) | 2 (≈ 0.703 µM) | 4 (≈ 1.41 µM) | 4 (≈ 1.41 µM) | 4 (≈ 1.41 µM) | 8 | 8 (≈ 2.81 µM) | 4 (≈ 1.41 µM) | 4 (≈ 1.41 µM) | 8 (≈ 2.81 µM) | 3.54 (≈ 1.24 µM) | 1.19 (≈ 0.418 µM) | HL50 (peptide concentration that causes 50% hemolysis) (Sheep RBCs): 14.39 µg/mL; IC50 [1]: 2.39 mg/L (≈ 0.84 µM); IC50 (E. coli 1F28 (tet(X4))): 2.62 mg/L (≈ 0.92 µM); IC50 (E. coli G92 (mcr-1); E. coli G92 (mcr-1)): 3.55 mg/L (≈ 1.25 µM); IC50 ([3]; E. coli B2 (mcr-1 + blaNDM-5)): 4.36 mg/L; IC50 ([2]; A. baumannii C222 (tet(X6))): 4.16 mg/L (≈ 1.46 µM); IC50 (E. coli CP131 (mcr-3); E. coli CP131 (mcr-3)): 3.39 mg/L (≈ 1.19 µM); IC50 (E. coli G6 (blaNDM-5)): 2.38 mg/L (≈ 0.836 µM); IC50 (E. coli C3 (blaNDM-1)): 5.03 mg/L (≈ 1.77 µM)
CC(C)C[C@H](NC(=O)[C@H](Cc1c[nH]c2ccccc12)NC(=O)[C@H](Cc1c[nH]c2ccccc12)NC(=O)[C@@H](N)Cc1c[nH]c2ccccc12)C(=O)N[C@@H](CCCNC(=N)N)C(=O)N[C@@H](CCCNC(=N)N)C(=O)N[C@@H](CCCNC(=N)N)C(=O)N[C@@H](Cc1c[nH]c2ccccc12)C(N)=O [WW304] (H-WWWLRRRW-NH2) |  |  |  |  |  |  |  |  | 8 (≈ 5.95 µM) | 8 (≈ 5.95 µM) | 64 (≈ 47.6 µM) | 32 (≈ 23.8 µM) | 64 (≈ 47.6 µM) | 64 | 64 (≈ 47.6 µM) | 32 (≈ 23.8 µM) | 64 (≈ 47.6 µM) | 64 (≈ 47.6 µM) | 4.59 (≈ 3.42 µM) | 2.11 (≈ 1.57 µM) | HL50 (peptide concentration that causes 50% hemolysis) (Sheep RBCs): > 128 µg/mL; IC50 [1]: 33.60 mg/L (≈ 25 µM); IC50 (E. coli 1F28 (tet(X4))): 18.13 mg/L (≈ 13.5 µM); IC50 (E. coli G92 (mcr-1); E. coli G92 (mcr-1)): 31.96 mg/L (≈ 23.8 µM); IC50 ([3]; E. coli B2 (mcr-1 + blaNDM-5)): 36.12 mg/L; IC50 ([2]; A. baumannii C222 (tet(X6))): 34.74 mg/L (≈ 25.9 µM); IC50 (E. coli CP131 (mcr-3); E. coli CP131 (mcr-3)): 18.26 mg/L (≈ 13.6 µM); IC50 (E. coli G6 (blaNDM-5)): 36.04 mg/L (≈ 26.8 µM); IC50 (E. coli C3 (blaNDM-1)): 34.76 mg/L (≈ 25.9 µM)
C[C@@H](O)[C@H]1C(=O)N2C(C(=O)O)=C(S[C@@H]3CN[C@H](C(=O)N(C)C)C3)[C@H](C)[C@H]12 [MEM, meropenem] | 1 (≈ 2.61 µM) | 2 (≈ 5.22 µM) | > 16 | 0.25 (≈ 0.652 µM) | < 0.125 | < 0.125 | 64 (≈ 167 µM) | 8 (≈ 20.9 µM) |  |  |  |  |  |  |  |  |  |  |  |  | MIC ([3]; Escherichia coli): 32 mg/L (≈ 83.4 µM); MIC (E. coli CP131 (mcr-3); Escherichia coli): < 0.125 mg/L

Reference: paper PMC8063935, “Amphipathic Peptide Antibiotics with Potent Activity against Multidrug-Resistant Pathogens” (Pharmaceutics, 2021)
